In ChEMBL document CHEMBL1201862, “PubChem BioAssay data set” (2004):
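Dose response: 5 concentrations. Exposure: 48 h. Format: 96-well plates. Endpoint: linear interpolation; highest concentration if not reached. GI50 = concentration required for 50% inhibition of growth.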 Active and inactive are the calls of the source. Cut-off read from the data, not from the text of the source: active = GI50 up to about 1.1 µM and inactive = higher.

Experiments:
Assay in all cases: growth of human tumour cells (NCI), 48 h
RPMI-8226 = tested on: RPMI-8226
A549 = tested on: A549
UACC-62 = tested on: UACC-62
SK-MEL-2 = tested on: SK-MEL-2
HCC 2998 = tested on: HCC 2998
SNB-75 = tested on: SNB-75
SF-295 = tested on: SF-295
OVCAR-5 = tested on: OVCAR-5
SK-OV-3 = tested on: SK-OV-3
ACHN = tested on: ACHN
LOX IMVI = tested on: LOX IMVI
HCT-15 = tested on: HCT-15
SW-620 = tested on: SW-620
CCRF-CEM = tested on: CCRF-CEM
HOP-92 = tested on: HOP-92

Row | Compound | GI50 (RPMI-8226) | GI50 (A549) | GI50 (UACC-62) | GI50 (SK-MEL-2) | GI50 (HCC 2998) | GI50 (SNB-75) | GI50 (SF-295) | GI50 (OVCAR-5) | GI50 (SK-OV-3) | GI50 (ACHN) | GI50 (LOX IMVI) | GI50 (HCT-15) [µM] | GI50 (SW-620) | GI50 (CCRF-CEM) | GI50 (HOP-92)
1 | CC1C(c2ccccc2)=CCON1c1ccccc1 (stereo not given) | > 100 µM (inactive) | > 100 µM (inactive) | > 100 µM (inactive) | > 100 µM (inactive) | > 100 µM (inactive) | > 100 µM (inactive) | > 100 µM (inactive) | > 100 µM (inactive) | > 100 µM (inactive) | > 100 µM (inactive) | > 100 µM (inactive) | > 100 | > 100 µM (inactive) | > 100 µM (inactive) | –
2 | CCCC(=O)c1c(NOC2OC(COC(C)=O)C(OC(C)=O)C(OC(C)=O)C2OC(C)=O)nc(OC)n(C)c1=O (stereo not given) | – | > 100 µM (inactive) | > 100 µM (inactive) | > 100 µM (inactive) | > 100 µM (inactive) | > 100 µM (inactive) | > 100 µM (inactive) | > 100 µM (inactive) | – | > 100 µM (inactive) | > 100 µM (inactive) | > 100 | > 100 µM (inactive) | > 100 µM (inactive) | –
3 | CCCCN(CC)CC(C(C)=O)c1c(O)c2ccccc2oc1=O (stereo not given) | > 100 µM (inactive) | > 100 µM (inactive) | > 100 µM (inactive) | > 100 µM (inactive) | > 100 µM (inactive) | > 100 µM (inactive) | > 100 µM (inactive) | > 100 µM (inactive) | > 100 µM (inactive) | > 100 µM (inactive) | > 100 µM (inactive) | > 100 | > 100 µM (inactive) | > 100 µM (inactive) | –
4 | CCOC(=O)C(C(=O)c1ccccc1-c1ccccc1C(=O)O)=P(c1ccccc1)(c1ccccc1)c1ccccc1 | 13.9 µM (inactive) | 17.8 µM (inactive) | 17.4 µM (inactive) | 20.6 µM (inactive) | 22.3 µM (inactive) | 12.8 µM (inactive) | 31.9 µM (inactive) | – | – | 30 µM (inactive) | 20.3 µM (inactive) | 25.7 | 31.3 µM (inactive) | 20.7 µM (inactive) | –
5 | Cc1cc2c(c(C#N)c1C)NC(=O)CCC2=O | > 100 µM (inactive) | > 100 µM (inactive) | > 100 µM (inactive) | > 100 µM (inactive) | > 100 µM (inactive) | > 100 µM (inactive) | > 100 µM (inactive) | – | – | > 100 µM (inactive) | – | > 100 | > 100 µM (inactive) | > 100 µM (inactive) | –
6 | C[C@@H]1C[C@@H]2C(=O)N(c3ccccc3)C(=O)[C@@H]2c2[nH]c3ccc(Br)cc3c21 | – | 33.6 µM (inactive) | 84.7 µM (inactive) | 55.3 µM (inactive) | 51.1 µM (inactive) | 20.2 µM (inactive) | 32.4 µM (inactive) | > 100 µM (inactive) | 22.3 µM (inactive) | 45.1 µM (inactive) | 96.8 µM (inactive) | 34.3 | 35.5 µM (inactive) | > 100 µM (inactive) | 27.6 µM (inactive)
7 | N#CC(c1ccccc1)c1nc2ccc(N)cc2[n+]([O-])c1C(C#N)c1ccccc1 (stereo not given) | – | 57.8 µM (inactive) | 47.3 µM (inactive) | 40.2 µM (inactive) | – | – | > 100 µM (inactive) | > 100 µM (inactive) | > 100 µM (inactive) | 58.1 µM (inactive) | 64.9 µM (inactive) | 46 | 57.4 µM (inactive) | 46.6 µM (inactive) | –
8 | C[C@@H]1CC[C@@]2(C)OC(c3ccccc3)[C@H](CO)N2C1=O (stereo not given in full) | > 100 µM (inactive) | > 100 µM (inactive) | > 100 µM (inactive) | > 100 µM (inactive) | – | > 100 µM (inactive) | > 100 µM (inactive) | > 100 µM (inactive) | – | > 100 µM (inactive) | > 100 µM (inactive) | > 100 | > 100 µM (inactive) | – | > 100 µM (inactive)
